In patent publication US20140329780A1, “INHIBITOR OF COLONISATION OF MUCOSA” (HELMHOLTZ-ZENTRUM FUER INFEKTIONSFORSCHUNG GMBH, priority 2011, published 2014):
Entries after “also recorded” stand apart in the source; their conditions may differ. Where two headings read alike, the source gives them in different places.

Legend:
S. aureus N315 [1] = experiment: Adhesion test: inhibition of adherence of S. aureus N315 on A549 cells; assay type: cell-based, Staphylococcus aureus; settings: for Reduction of adhesion [%]: S. aureus on A549 cells
Procedure: S. aureus (N315) was precultivated on blood agar plates at 37° C. overnight. A colony was picked from the plate with a sterile loop and transferred into 5 ml of BHI medium. The suspension was incubated aerobically at 37° C. for 18 h. After this time the bacterial suspension was centrifugated and the clear medium was decanted off. The pellet was resuspended in PBS and centrifugated again twice. Finally the pellet was resuspended in infection medium at an OD of 1.0 at 600 nm.
Infection medium: Gibco RPMI 1640medium, pH 7.4 (Invitrogen, Carlsbad, USA), containing 1% FBS and 20 mM Hepes.
All media that were used were prewarmed to 37° C. The cell line A-549 was utilized. A-549 cells from a stock that was stored at −196° C. were quickly thawed and suspended in 10 ml of cell culture medium (DMEM (Lonza, Basel, Schweiz) containing 10% FBS (Invitrogen, Carlsbad, USA)). They were cultivated at 37° C. with 10% CO2 in cell culture bottles with a surface of 25 cm^2 under moisture saturation. The next day, the medium was removed and fresh medium was added. The cells were harvested at a confluency state of 80-90% by scrapping them off the bottom of the bottles and pipetting the suspension up and down several times. An aliquot was transferred into a fresh cell culture bottle with fresh medium. After another round of growth to 80-90% confluency the medium was removed and the cell layer was washed with 10 ml of sterile EBSS (Invitrogen). After removing the liquid, 1 ml of a 1% solution of trypsin was evenly distributed over the cell layer. After an incubation for 5 min at 37° C. and a visible detachment of the cell layer, 10 ml of fresh cell culture medium were added, the cells were resuspended and counted in a Neubauer cell counting chamber. A cell density of 100,000 /ml was adjusted and 100 μl of the cell suspension was distributed into the wells of a 96-well microtiter plate. The plate was incubated at 37° C. with 10% CO2 and moisture saturation until the cells had formed an adherent monolayer with 95-100% confluency (4-5 days). The medium was removed by pipetting and 75 μl of fresh infection medium were added to each well, followed by 25 μl of a bacterial suspension (OD600 1.0), together with different concentrations of the test compound. After an incubation time of 60 min at room temperature the medium and non-adherent bacteria were removed with a pipette and the wells were washed three times with PBS.
For fixing the cells a solution of 4% paraformaldehyde in PBS was added and incubated for 20 min at room temperature. After removing the solution and washing the cells with PBS twice, a primary antibody against S. aureus lipoteichoic acid (from rabbit, Acris Antibodies GmbH, Herford) at 1:5000 dilution in 1% BSA-PBS was added (50 μl/Well) and incubated for 45 min at room temperature. During the last 10 min of this incubation an additional 50 μl/well of a solution of DAPI ((4′,6 Diamidino-2-phenylindol)dihydrochloride) in PBS (final concentration 1 μg/ml) was added. After a washing step an incubation with the HRP-conjugated secondary antibody (goat anti rabbit, Dianova) in 1% BSA-PBS for 45 min at room temperature was carried out. For detection of chemiluminescence the BM chemiluminescence ELISA substrate (POD—peroxidase-based secondary detection systems, Roche) was used. Chemiluminescence was determined immediately after addition of the substrate with a chemiluminescence microtiter plate reader.
The detection and quantification of the adherent bacteria can also be carried out with a fluorescence-coupled secondary antibody, for which Alexa Fluor 488 goat anti rabbit at 1:1000 dilution was used. The determination of fluorescence was done after washing with PBS and adding 100 μl PBS per well with a fluorescence microtiter plate reader at 485/530 nm.
Another and very favourable way to quantify the adherent bacteria is the utilization of an automatic microscope.
The procedure is described for the ImageXpress Micro (IXM, Molecular Devices) […]

S. aureus = experiment: Influence of ATA on S. aureus already adhering to A549 cells; assay type: cell-based, Staphylococcus aureus
Procedure: Black bars represent 0.95 μg/ml ATA and white bars represent 2.2 μg/ml. A549 cells were incubated with S. aureus for 1 hour in advance and then ATA was added. Shown are the results for adherence after incubation with ATA for the time period indicated in the graph.
All media that were used were prewarmed to 37° C. The cell line A-549 was utilized. A-549 cells from a stock that was stored at −196° C. were quickly thawed and suspended in 10 ml of cell culture medium (DMEM (Lonza, Basel, Schweiz) containing 10% FBS (Invitrogen, Carlsbad, USA)). They were cultivated at 37° C. with 10% CO2 in cell culture bottles with a surface of 25 cm^2 under moisture saturation. […] After an incubation for 5 min at 37° C. and a visible detachment of the cell layer, 10 ml of fresh cell culture medium were added, the cells were resuspended and counted in a Neubauer cell counting chamber. […]
For fixing the cells a solution of 4% paraformaldehyde in PBS was added and incubated for 20 min at room temperature. […] Chemiluminescence was determined immediately after addition of the substrate with a chemiluminescence microtiter plate reader.
Next, the influence of ATA at two different concentrations corresponding to the IC50 and IC90 values determined in Example 2, on adhering S. aureus cells has been determined. […] The adhesion has been calculated on the basis of 100% adhesion in the absence of ATA.

[2] = tested on: different S. aureus isolates (50128509, BH30(04), 50307270, BH30(04) spa, 50046981); experiment: Inhibition of adherence of different S. aureus isolates; assay type: cell-based, Staphylococcus aureus; settings: MRSA, rifampicin-resistant, tetracycline resistant and methicillin sensitive isolates
From the text: The inhibitory properties of ATA on different S. aureus isolates have been determined using the following strains: 50128509 (MRSA; source: HZI Braunschweig), BH30(04) (MRSA; biofilm positive; SCCmec type II; MLST type 8; CC8; kindly provided by Prof. Jim O'Gara), 50307270 (rifampicin-resistant; source HZI Braunschweig), BH30(04) spa (tetracycline resistant; kindly provided by Prof. Jim O'Gara), 50046981 (methicllin sensitive; source: HZI Braunschweig).
Adherence has been determined as described above.

S. aureus N315 [3] = experiment: Inhibition of adherence of S. aureus N315 on human primary nasal epithelial cells; assay type: cell-based, Staphylococcus aureus; settings: 1 μg/ml ATA
Procedure: The experiments with the human nasal primary cells (HNEPC, Provitro GmbH, Berlin) were used as described for the A-549 cells and used for up to four passages (corresponding to approx. four weeks). For the HNEPC, Airway epithelial cell growth medium (Provitro GmbH, Berlin) was used.
Following the general procedure as described above, the properties of ATA on inhibiting adhesion of S. aureus N315 on human primary epithelial cells was investigated. ATA was added at different concentrations to the culture and adherence was determined as described before. Already a concentration of 1 μg/ml ATA is sufficient to reduce the adherence of S. aureus to about 45%.

MRSA strain N315 = experiment: Anti-bacterial activity / growth curves of MRSA strain N315; assay type: cell-based, Staphylococcus aureus
From the text: That is, it has been recognized that ATA is able to inhibit adherence of bacteria, like S. aureus, including MRSA strains while not showing an anti-bacterial activity.

host cells = experiment: Effects on host cells; assay type: cell-based
[4] = adhesion of S. aureus N315 on A549 cells
[5] = Staphylococcus aureus, N315, A549

SMILES | Reduction of adhesion [%] (S. aureus N315 [1]; 100 μM) | IC10 (S. aureus N315 [1]; [4]) | IC50 (S. aureus N315 [1]; adhesion of S. aureus N315 on A549 cells, read-out: IC50) | IC90 (S. aureus N315 [1]; adhesion of S. aureus N315 on A549 cells, read-out: IC90) | Reduction of adhesion [%] (S. aureus N315 [1]; ≦50 μM) | IC50 (S. aureus N315 [1]; [5]) | IC90 (S. aureus N315 [1]; [5]) | percentage of adherence of S. aureus compared to the control with no ATA (S. aureus; 2.2 μg/ml ATA added after 1 hour pre-incubation of A549 cells with S. aureus, after 3 hours) | eradication of S. aureus after adherence to cells (S. aureus; ATA at IC50 and IC90 concentrations added after 1 hour adherence to A549 cells) | inhibitory activity on adherence of different S. aureus strains [2] | adherence of S. aureus (S. aureus N315 [3]) | anti-bacterial effect (growth curves of MRSA strain N315) (MRSA strain N315; 40 ug/ml, FIG. 6) | influence on growth of the MRSA strain (MRSA strain N315; 48 μg/ml, FIG. 6) | anti-bacterial activity (MRSA strain N315; concentration up to 100 μg/ml) | effects on host cells (host cells)
Cc1cc(=O)c2c(O)c3c(O)cc(O)c4c5c(O)cc(O)c6c(O)c7c(=O)cc(CO)c8c1c2c(c34)c(c65)c78 [pseudohypericine] | >90% | 20 µM | 51 µM | 80 µM | 50% |  |  |  |  |  |  |  |  |  | 
O=C(O)C1=CC(=C(c2ccc(O)c(C(=O)O)c2)c2ccc(O)c(C(=O)O)c2)C=CC1=O [ATA, aurintricarboxylic acid] | >90% | ~0.45 µg/mL |  |  | >90% | 0.95 µg/mL | ~2.2 µg/mL | below 40% | potent in eradicating S. aureus after adherence to cells | effective on different types of S. aureus strains | about 45% | does not have an anti-bacterial effect | does not significantly influence growth | no anti-bacterial activity is present; also recorded: does not show anti-bacterial activity | no remarkable effects have been observed on host cells
